According to the kinase profiling compilation of Christmann-Franck et al. (2016):

Key:
Assay in all cases: SelectScreen, TR FRET
PI4KA (human) = PI4KA (human) (UniProt P42356)
PI4KB (human) = PI4KB (human) (UniProt Q9UBF8)
PIK3C2B (human) = PIK3C2B (human) (UniProt O00750)
PIK3C3 (human) = PIK3C3 (human) (UniProt Q8NEB9)
Chain of PIK3C3 (human) (Q8NEB9 whole entry, looked up): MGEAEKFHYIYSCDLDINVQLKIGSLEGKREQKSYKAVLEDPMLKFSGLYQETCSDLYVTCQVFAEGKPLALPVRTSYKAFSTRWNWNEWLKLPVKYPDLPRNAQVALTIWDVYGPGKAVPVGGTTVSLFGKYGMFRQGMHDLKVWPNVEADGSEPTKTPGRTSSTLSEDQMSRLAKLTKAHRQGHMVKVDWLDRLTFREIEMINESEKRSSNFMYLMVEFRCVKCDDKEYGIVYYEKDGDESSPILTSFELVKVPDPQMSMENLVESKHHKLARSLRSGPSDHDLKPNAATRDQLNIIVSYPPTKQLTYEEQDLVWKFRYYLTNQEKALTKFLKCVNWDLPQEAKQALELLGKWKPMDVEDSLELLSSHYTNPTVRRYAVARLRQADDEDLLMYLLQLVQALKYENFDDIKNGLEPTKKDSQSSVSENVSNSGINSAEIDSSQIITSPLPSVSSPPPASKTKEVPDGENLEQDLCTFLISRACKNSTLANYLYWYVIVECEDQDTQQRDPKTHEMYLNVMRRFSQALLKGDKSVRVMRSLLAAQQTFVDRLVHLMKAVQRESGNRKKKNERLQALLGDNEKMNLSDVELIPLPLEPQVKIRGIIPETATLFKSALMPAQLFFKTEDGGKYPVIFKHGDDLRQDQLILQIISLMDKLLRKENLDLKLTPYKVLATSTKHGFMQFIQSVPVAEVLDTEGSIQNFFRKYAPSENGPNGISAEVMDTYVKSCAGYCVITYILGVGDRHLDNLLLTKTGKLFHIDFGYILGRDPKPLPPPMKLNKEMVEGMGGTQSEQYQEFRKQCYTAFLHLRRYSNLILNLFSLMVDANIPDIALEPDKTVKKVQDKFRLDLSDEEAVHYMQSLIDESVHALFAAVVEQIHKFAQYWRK

Chain of PIK3C2B (human) (O00750 whole entry, looked up): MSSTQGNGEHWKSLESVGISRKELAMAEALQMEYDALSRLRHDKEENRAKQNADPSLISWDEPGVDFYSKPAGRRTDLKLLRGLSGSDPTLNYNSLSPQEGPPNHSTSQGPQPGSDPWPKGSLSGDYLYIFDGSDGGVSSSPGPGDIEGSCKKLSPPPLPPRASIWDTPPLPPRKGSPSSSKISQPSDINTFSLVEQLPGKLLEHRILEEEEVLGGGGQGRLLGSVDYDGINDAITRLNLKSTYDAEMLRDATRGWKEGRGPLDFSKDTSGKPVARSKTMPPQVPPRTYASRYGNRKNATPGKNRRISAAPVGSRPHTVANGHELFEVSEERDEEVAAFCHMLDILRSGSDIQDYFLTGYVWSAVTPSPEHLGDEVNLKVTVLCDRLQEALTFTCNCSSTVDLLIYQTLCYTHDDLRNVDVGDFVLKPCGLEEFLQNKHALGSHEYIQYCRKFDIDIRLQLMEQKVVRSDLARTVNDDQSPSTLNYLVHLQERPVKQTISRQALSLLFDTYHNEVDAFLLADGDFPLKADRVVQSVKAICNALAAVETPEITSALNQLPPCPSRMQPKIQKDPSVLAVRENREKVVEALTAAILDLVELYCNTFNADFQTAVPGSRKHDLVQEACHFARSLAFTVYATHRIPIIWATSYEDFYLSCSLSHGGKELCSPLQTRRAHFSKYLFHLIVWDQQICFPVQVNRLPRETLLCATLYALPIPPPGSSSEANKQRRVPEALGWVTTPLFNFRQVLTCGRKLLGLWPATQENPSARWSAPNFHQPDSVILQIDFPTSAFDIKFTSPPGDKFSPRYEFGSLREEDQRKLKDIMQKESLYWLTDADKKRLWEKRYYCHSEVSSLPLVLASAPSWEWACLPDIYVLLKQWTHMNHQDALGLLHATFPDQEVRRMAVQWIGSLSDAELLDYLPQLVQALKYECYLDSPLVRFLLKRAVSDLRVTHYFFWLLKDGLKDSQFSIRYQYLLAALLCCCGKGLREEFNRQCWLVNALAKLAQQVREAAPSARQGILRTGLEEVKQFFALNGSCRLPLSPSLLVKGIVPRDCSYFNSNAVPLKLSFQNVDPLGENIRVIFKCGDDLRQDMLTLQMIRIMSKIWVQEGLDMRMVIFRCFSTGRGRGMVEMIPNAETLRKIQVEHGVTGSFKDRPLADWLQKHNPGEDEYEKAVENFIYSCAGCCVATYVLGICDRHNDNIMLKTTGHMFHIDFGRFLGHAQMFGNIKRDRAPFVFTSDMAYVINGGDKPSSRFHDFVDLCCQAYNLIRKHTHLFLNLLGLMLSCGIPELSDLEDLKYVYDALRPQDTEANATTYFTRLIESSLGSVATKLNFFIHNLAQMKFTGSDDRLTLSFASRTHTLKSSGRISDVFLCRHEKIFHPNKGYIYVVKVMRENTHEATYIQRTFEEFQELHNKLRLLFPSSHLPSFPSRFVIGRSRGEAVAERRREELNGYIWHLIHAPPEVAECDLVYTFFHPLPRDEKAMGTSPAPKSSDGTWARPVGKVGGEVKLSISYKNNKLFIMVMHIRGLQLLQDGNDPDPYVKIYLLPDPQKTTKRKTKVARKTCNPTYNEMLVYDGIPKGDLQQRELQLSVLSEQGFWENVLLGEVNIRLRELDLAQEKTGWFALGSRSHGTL
Chain of PI4KB (human) (Q9UBF8 whole entry, looked up): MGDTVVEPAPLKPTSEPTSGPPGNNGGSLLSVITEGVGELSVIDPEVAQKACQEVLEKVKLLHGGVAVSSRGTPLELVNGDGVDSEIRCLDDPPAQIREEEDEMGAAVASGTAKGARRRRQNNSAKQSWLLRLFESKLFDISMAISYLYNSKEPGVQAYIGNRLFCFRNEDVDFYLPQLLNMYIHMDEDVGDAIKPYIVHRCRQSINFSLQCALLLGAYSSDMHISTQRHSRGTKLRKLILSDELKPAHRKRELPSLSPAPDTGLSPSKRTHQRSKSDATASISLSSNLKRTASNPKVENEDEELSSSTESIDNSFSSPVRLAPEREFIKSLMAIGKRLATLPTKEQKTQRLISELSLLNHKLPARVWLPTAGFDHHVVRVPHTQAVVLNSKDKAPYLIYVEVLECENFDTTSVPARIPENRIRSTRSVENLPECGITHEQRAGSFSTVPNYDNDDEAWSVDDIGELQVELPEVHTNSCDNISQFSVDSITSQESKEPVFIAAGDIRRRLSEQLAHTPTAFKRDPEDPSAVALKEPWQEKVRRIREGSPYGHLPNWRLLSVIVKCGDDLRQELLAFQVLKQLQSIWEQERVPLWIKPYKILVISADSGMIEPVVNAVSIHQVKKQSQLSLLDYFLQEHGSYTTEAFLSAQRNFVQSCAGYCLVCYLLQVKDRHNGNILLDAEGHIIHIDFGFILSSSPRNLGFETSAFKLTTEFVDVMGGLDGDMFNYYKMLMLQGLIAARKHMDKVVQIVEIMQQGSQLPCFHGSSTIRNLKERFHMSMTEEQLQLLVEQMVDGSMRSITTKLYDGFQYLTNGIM

Question: What does the source list for `Cc1cc([C@@H](C)Nc2ccccc2C(=O)O)c2nc(N3CCOCC3)cc(=O)n2c1`?
Answer: IC50 (PI4KA (human)): 8.83 µM; IC50 (PI4KB (human)): > 10 µM; IC50 (PIK3C2B (human)): 0.0541 µM; IC50 (PIK3C3 (human)): 3.39 µM
